Test results from patent US9650395B2, “Antibacterial compounds and methods for use” (PTC Therapeutics, Inc., priority 2011, dated 2017).
Values after ≈ are worked out from the molar mass of the structure shown.

Columns and labels:
[1] = system: Gram-positive Staphylococcus aureus (S. aureus) 29213; test: Antibacterial activity, microbroth dilution MIC, S. aureus 29213; format: cell-based; conditions: Staphylococcus aureus; S. aureus 29213, microbroth dilution; read-out: MIC, 29213
[2] = system: control Gram-negative E. coli 25922 strain; test: Antibacterial activity, microbroth dilution MIC, E. coli 25922; format: cell-based, Escherichia coli; conditions: Escherichia coli; E. coli 25922, microbroth dilution; read-out: MIC, 25922
[3] = system: resistant K. pneumoniae MXX1232 (MDR clinical isolate); test: Antibacterial activity, MIC, resistant K. pneumoniae MXX1232; format: cell-based, Klebsiella pneumoniae; conditions: Klebsiella pneumoniae; resistant K. pneumoniae MMX1232, MDR clinical isolate; read-out: MIC MMX1232
[4] = system: quinolone resistant E. coli LZ3111; test: Antibacterial activity, MIC, quinolone resistant E. coli LZ3111; format: cell-based, Escherichia coli; conditions: Escherichia coli, read-out: MIC, LZ3111
Description: (§1) The antibacterial activity from a microbroth dilution method may be presented as the minimum inhibitory concentration (MIC in […]). The MIC value is the lowest concentration of a drug which prevents macroscopically visible bacterial growth under test conditions.
Mutations in these regions are known to confer a high level resistance to the quinolone class of antibiotics.

[5] = system: Pseudomonas aeruginosa (P. aeruginosa) 27853; test: Antibacterial activity, MIC, P. aeruginosa 27853; format: cell-based; conditions: Pseudomonas aeruginosa, P. aeruginosa 27853; read-out: MIC 27853
Description: as §1
Antibacterial activity of test compounds against the Gram-negative bacterium Pseudomonas aeruginosa (P. aeruginosa) 27853 is shown in Table 5.

[6] = system: resistant A. baumannii MXX2240 (MDR clinical isolate); test: Antibacterial activity, MIC, resistant A. baumannii MXX2240; format: cell-based, Acinetobacter baumannii; conditions: Acinetobacter baumannii, resistant A. baumannii MMX2240, MDR clinical isolate; read-out: MIC MMX2240
[7] = system: Acinetobacter baumannii (A. baumannii) BAA747; test: Antibacterial activity, MIC, A. baumannii BAA747; format: cell-based; conditions: Acinetobacter baumannii; A. baumannii BAA747; read-out: MIC BAA747
[8] = system: super sensitive Gram-negative Escherichia coli (E. coli) BAS849; test: Antibacterial activity, microbroth dilution MIC, E. coli BAS849; format: cell-based; conditions: Escherichia coli; E. coli BAS849, microbroth dilution; read-out: MIC, BAS849
[9] = system: Klebsiella pneumoniae (K. pneumoniae) 35657; test: Antibacterial activity, MIC, K. pneumoniae 35657; format: cell-based; conditions: Klebsiella pneumoniae

| SMILES | MIC [1] | MIC [2] | MIC [3] | MIC [4] | MIC [5] | MIC [6] | MIC [7] | MIC [8] | MIC [9] |
| --- | --- | --- | --- | --- | --- | --- | --- | --- | --- |
| CN(C)c1ccc(-c2[nH]c(=O)c(C(=O)O)c(O)c2CO)cc1 [Cpd 331, 6-(4-(dimethylamino)phenyl)-4-hydroxy-5-(hydroxymethyl)-2-oxo-1,2-dihydropyridine-3-carboxylic acid] | 12.5 to 150 µg/mL (≈ 41.1 to 493 µM) | 12.5 to 150 µg/mL (≈ 41.1 to 493 µM) | 12.5 to 150 µg/mL (≈ 41.1 to 493 µM) | 3.5 to 12.5 µg/mL (≈ 11.5 to 41.1 µM) | 12.5 to 150 µg/mL (≈ 41.1 to 493 µM) | 12.5 to 150 µg/mL (≈ 41.1 to 493 µM) | 12.5 to 150 µg/mL (≈ 41.1 to 493 µM) | 1 to 3.5 µg/mL (≈ 3.29 to 11.5 µM) | 12.5 to 150 µg/mL (≈ 41.1 to 493 µM) |
| COCc1c(-c2ccc(N(C)C)cc2)[nH]c(=O)c(C(=O)O)c1O [Cpd 332, 6-(4-(dimethylamino)phenyl)-4-hydroxy-5-(methoxymethyl)-2-oxo-1,2-dihydropyridine-3-carboxylic acid] | 12.5 to 150 µg/mL (≈ 39.3 to 471 µM) | 12.5 to 150 µg/mL (≈ 39.3 to 471 µM) | 12.5 to 150 µg/mL (≈ 39.3 to 471 µM) | 12.5 to 150 µg/mL (≈ 39.3 to 471 µM) | 12.5 to 150 µg/mL (≈ 39.3 to 471 µM) | 12.5 to 150 µg/mL (≈ 39.3 to 471 µM) | 12.5 to 150 µg/mL (≈ 39.3 to 471 µM) | 12.5 to 150 µg/mL (≈ 39.3 to 471 µM) | 12.5 to 150 µg/mL (≈ 39.3 to 471 µM) |
| CC#Cc1c(-c2ccc(N(C)C)cc2)[nH]c(=O)c(C(=O)O)c1O [Cpd 333, 6-(4-(dimethylamino)phenyl)-4-hydroxy-2-oxo-5-(prop-1-ynyl)-1,2-dihydropyridine-3-carboxylic acid] | 12.5 to 150 µg/mL (≈ 40 to 480 µM) | 12.5 to 150 µg/mL (≈ 40 to 480 µM) | 12.5 to 150 µg/mL (≈ 40 to 480 µM) | 12.5 to 150 µg/mL (≈ 40 to 480 µM) | 12.5 to 150 µg/mL (≈ 40 to 480 µM) | 12.5 to 150 µg/mL (≈ 40 to 480 µM) | 12.5 to 150 µg/mL (≈ 40 to 480 µM) | 1 to 3.5 µg/mL (≈ 3.2 to 11.2 µM) | 12.5 to 150 µg/mL (≈ 40 to 480 µM) |
| CCc1c(-c2ccc(O)cc2)[nH]c(=O)c(C(=O)O)c1O [Cpd 334, 5-ethyl-4-hydroxy-6-(4-hydroxyphenyl)-2-oxo-1,2-dihydropyridine-3-carboxylic acid] | 12.5 to 150 µg/mL (≈ 45.4 to 545 µM) | 12.5 to 150 µg/mL (≈ 45.4 to 545 µM) | 12.5 to 150 µg/mL (≈ 45.4 to 545 µM) | 12.5 to 150 µg/mL (≈ 45.4 to 545 µM) | 12.5 to 150 µg/mL (≈ 45.4 to 545 µM) | 12.5 to 150 µg/mL (≈ 45.4 to 545 µM) | 12.5 to 150 µg/mL (≈ 45.4 to 545 µM) | 3.5 to 12.5 µg/mL (≈ 12.7 to 45.4 µM) | 12.5 to 150 µg/mL (≈ 45.4 to 545 µM) |
| CCc1c(-c2ccc(N3CCC(N(C)C)C3)nc2)[nH]c(=O)c(C(=O)O)c1O (stereo not drawn) [Cpd 335, 6-(6-(3-(dimethylamino)pyrrolidin-1-yl)pyridin-3-yl)-5-ethyl-4-hydroxy-2-oxo-1,2-dihydropyridine-3-carboxylic acid] | 12.5 to 150 µg/mL (≈ 33.6 to 403 µM) | 12.5 to 150 µg/mL (≈ 33.6 to 403 µM) | 12.5 to 150 µg/mL (≈ 33.6 to 403 µM) | < 1 µg/mL | 12.5 to 150 µg/mL (≈ 33.6 to 403 µM) | 12.5 to 150 µg/mL (≈ 33.6 to 403 µM) | 12.5 to 150 µg/mL (≈ 33.6 to 403 µM) | 3.5 to 12.5 µg/mL (≈ 9.4 to 33.6 µM) | 12.5 to 150 µg/mL (≈ 33.6 to 403 µM) |
| CCc1c(-c2ccc(N3CCCC3)nc2)[nH]c(=O)c(C(=O)O)c1O [Cpd 336, 5-ethyl-4-hydroxy-2-oxo-6-(6-(pyrrolidin-1-yl)pyridin-3-yl)-1,2-dihydropyridine-3-carboxylic acid] | 12.5 to 150 µg/mL (≈ 38 to 455 µM) | 12.5 to 150 µg/mL (≈ 38 to 455 µM) | 12.5 to 150 µg/mL (≈ 38 to 455 µM) | 3.5 to 12.5 µg/mL (≈ 10.6 to 38 µM) | 12.5 to 150 µg/mL (≈ 38 to 455 µM) | 12.5 to 150 µg/mL (≈ 38 to 455 µM) | 12.5 to 150 µg/mL (≈ 38 to 455 µM) | 1 to 3.5 µg/mL (≈ 3.04 to 10.6 µM) | 12.5 to 150 µg/mL (≈ 38 to 455 µM) |
| Cc1c(-c2ccc(N3CCC(N(C)C)C3)nc2)[nH]c(=O)c(C(=O)O)c1O (stereo not drawn) [Cpd 337, 6-(6-(3-(dimethylamino)pyrrolidin-1-yl)pyridin-3-yl)-4-hydroxy-5-methyl-2-oxo-1,2-dihydropyridine-3-carboxylic acid] | 12.5 to 150 µg/mL (≈ 34.9 to 419 µM) | 12.5 to 150 µg/mL (≈ 34.9 to 419 µM) | 12.5 to 150 µg/mL (≈ 34.9 to 419 µM) | < 1 µg/mL | 12.5 to 150 µg/mL (≈ 34.9 to 419 µM) | 12.5 to 150 µg/mL (≈ 34.9 to 419 µM) | 12.5 to 150 µg/mL (≈ 34.9 to 419 µM) | 12.5 to 150 µg/mL (≈ 34.9 to 419 µM) | 12.5 to 150 µg/mL (≈ 34.9 to 419 µM) |
| CCc1c(-c2ccc(C3CCN(C)CC3)cc2)[nH]c(=O)c(C(=O)O)c1O [Cpd 338, 5-ethyl-4-hydroxy-6-(4-(1-methylpiperidin-4-yl)phenyl)-2-oxo-1,2-dihydropyridine-3-carboxylic acid] | 12.5 to 150 µg/mL (≈ 35.1 to 421 µM) | 12.5 to 150 µg/mL (≈ 35.1 to 421 µM) | 12.5 to 150 µg/mL (≈ 35.1 to 421 µM) | 12.5 to 150 µg/mL (≈ 35.1 to 421 µM) | 12.5 to 150 µg/mL (≈ 35.1 to 421 µM) | 12.5 to 150 µg/mL (≈ 35.1 to 421 µM) | 12.5 to 150 µg/mL (≈ 35.1 to 421 µM) | 12.5 to 150 µg/mL (≈ 35.1 to 421 µM) | 12.5 to 150 µg/mL (≈ 35.1 to 421 µM) |
